According to patent US10093623B2, “Cyclic amides as MetAP-2 inhibitors” (MERCK PATENT GmbH, priority 2012, dated 2018):

Each molecule was assayed against MetAP-2 (Homo sapiens, UniProt P50579) (assay: MetAP-2 activity measurement (coupled enzymatic reactions, Met-Arg-Ser substrate, dianisidine detection at 450 nm)). Details: Inhibition of MetAP-2; read-out: IC50 enzyme.
Format: biochemical
In short: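 Coupled continuous assay with Met-Arg-Ser tripeptide substrate: released methionine oxidised by L-amino acid oxidase to give H2O2, which peroxidase uses to oxidise dianisidine, followed at 450 nm. Activity taken as slope of absorbance versus time over the visually linear region; dianisidine extinction coefficient converts to mol Met per time.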

Sequence of MetAP-2 (P50579 whole entry, species assumed): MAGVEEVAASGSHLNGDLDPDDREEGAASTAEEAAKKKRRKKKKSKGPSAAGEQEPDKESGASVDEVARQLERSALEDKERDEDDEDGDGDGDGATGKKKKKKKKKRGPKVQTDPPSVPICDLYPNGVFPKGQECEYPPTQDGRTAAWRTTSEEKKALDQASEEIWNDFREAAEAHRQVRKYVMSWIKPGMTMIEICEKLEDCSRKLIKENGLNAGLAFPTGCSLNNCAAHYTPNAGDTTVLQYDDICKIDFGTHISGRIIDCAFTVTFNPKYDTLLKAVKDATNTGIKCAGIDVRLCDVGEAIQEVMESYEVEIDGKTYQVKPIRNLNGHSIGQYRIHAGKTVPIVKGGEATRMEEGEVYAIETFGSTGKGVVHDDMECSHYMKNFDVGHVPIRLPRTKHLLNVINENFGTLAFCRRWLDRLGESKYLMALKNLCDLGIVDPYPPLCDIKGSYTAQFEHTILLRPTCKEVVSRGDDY

Row | SMILES | IC50 [nM]
1 | N#CCn1cc(N2CCC(O)(C(=O)NCc3cc(F)cc(Cl)c3)C2=O)cn1 (stereo not drawn) [B87, N-(3-Chloro-5-fluorobenzyl)-1-(1-cyanomethyl-1H-pyrazol-4-yl)-3-hydroxy-2-oxopyrrolidine-3-carboxamide] | 10 to 1000
2 | CC(=O)OC1(C(=O)NCc2cc(F)cc(Cl)c2)CCN(c2ccc3c(c2)CCC(=O)N3)C1=O (stereo not drawn) [B91, 3-(3-Chloro-5-fluorobenzyl-carbamoyl)-2-oxo-1-(2-oxo-1,2,3,4-tetrahydroquinolin-6-yl)-pyrrolidin-3-yl acetate] | 1000 to 10000
3 | O=C(NCc1cc(F)cc(Cl)c1)[C@@]1(O)CCN(c2cnc3[nH]cnc3c2)C1=O [B92, N-(3-Chloro-5-fluorobenzyl)-(S)-3-hydroxy-1-(3H-imidazo-[4,5-b]pyridin-6-yl)-2-oxo-pyrrolidine-3-carboxamide] | 10 to 1000
4 | O=C(NCc1cc(F)cc(Cl)c1)[C@]1(O)CCN(c2cnc3[nH]cnc3c2)C1=O [B93, N-(3-Chloro-5-fluorobenzyl)-(R)-3-hydroxy-1-(3H-imidazo-[4,5-b]pyridin-6-yl)-2-oxo-pyrrolidine-3-carboxamide] | 1000 to 10000
5 | COCCn1cc(N2CC[C@](O)(C(=O)NCc3cc(F)cc(Cl)c3)C2=O)cn1 [B99, N-(3-Chloro-5-fluorobenzyl)-(S)-3-hydroxy-1-[1-(2-methoxy-ethyl)-1H-pyrazol-4-yl]-2-oxo-pyrrolidine-3-carboxamide] | 10 to 1000
6 | COCCn1cc(N2CC[C@@](O)(C(=O)NCc3cc(F)cc(Cl)c3)C2=O)cn1 [B100, N-(3-Chloro-5-fluorobenzyl)-(R)-3-hydroxy-1-[1-(2-methoxy-ethyl)-1H-pyrazol-4-yl]-2-oxo-pyrrolidine-3-carboxamide] | > 10000
7 | NS(=O)(=O)c1ccc(N2CC[C@](O)(C(=O)NCc3cc(F)cc(Cl)c3)C2=O)cc1 [B101, N-(3-Chloro-5-fluorobenzyl)-(S)-3-hydroxy-2-oxo-1-(4-sulfamoyl-phenyl)pyrrolidine-3-carboxamide] | 10 to 1000
8 | NC(=O)[C@@]1(O)CCN(c2ccc3c(c2)CCC(=O)N3)C1=O [B103, (S)-3-Hydroxy-2-oxo-1-(2-oxo-1,2,3,4-tetrahydroquinolin-6-yl)-pyrrolidine-3-carboxamide] | > 10000
9 | O=C(NCc1cc(F)cc(Cl)c1)C1(O)CCN(c2cnc3[nH]cc(C(F)(F)F)c3c2)C1=O (stereo not drawn) [B104, N-(3-Chloro-5-fluorobenzyl)-3-hydroxy-2-oxo-1-(3-trifluoro-methyl-1H-pyrrolo[2,3-b]pyridin-5-yl)pyrrolidine-3-carboxamide] | 10 to 1000
10 | COC(=O)CCc1cc(N2CCC(O)(C(=O)NCc3cc(F)cc(Cl)c3)C2=O)ccc1NC(=O)OC(C)(C)C (stereo not drawn) [B105, Methyl 3-{2-tert-butoxy-carbonylamino-5-[3-(3-chloro-5-fluorobenzylcarbamoyl)-3-hydroxy-2-oxopyrrolidin-1-yl]-phenyl}propionate] | 10 to 1000
11 | CC(C)(C)OC(=O)Nc1ccc(N2CCC(O)(C(=O)NCc3cc(F)cc(Cl)c3)C2=O)cc1CCC(=O)O (stereo not drawn) [B106, 3-{2-tert-Butoxycarbonylamino-5-[3-(3-chloro-5-fluorobenzyl-carbamoyl)-3-hydroxy-2-oxo-pyrrolidin-1-yl]phenyl}propionic acid] | 1000 to 10000
12 | O=C1CCc2cc(N3CCC(O)(C(=O)NCc4cc(F)cc(Cl)c4)C3=O)c(F)cc2N1 (stereo not drawn) [B109, N-(3-Chloro-5-fluorobenzyl)-1-(7-fluoro-2-oxo-1,2,3,4-tetrahydroquinolin-6-yl)-3-hydroxy-2-oxopyrrolidine-3-carboxamide] | 10 to 1000
13 | O=C(NCCc1cc(F)cc(F)c1)[C@@]1(O)CCN(c2ccc3[nH]ccc3c2)C1=O [B110, N-[2-(3,5-Difluorophenyl)ethyl]-(S)-3-hydroxy-1-(1H-indol-5-yl)-2-oxopyrrolidine-3-carboxamide] | 10 to 1000
14 | O=C(NCCc1cc(F)cc(F)c1)[C@]1(O)CCN(c2ccc3[nH]ccc3c2)C1=O [B111, N-[2-(3,5-Difluorophenyl)ethyl]-(R)-3-hydroxy-1-(1H-indol-5-yl)-2-oxopyrrolidine-3-carboxamide] | 1000 to 10000
15 | NS(=O)(=O)c1ccc(N2CCC(O)(C(=O)NCc3cc(F)cc(Cl)c3)C2=O)cc1 (stereo not drawn) [B115, N-(3-Chloro-5-fluorobenzyl)-3-hydroxy-2-oxo-1-(4-sulfamoyl-phenyl)pyrrolidine-3-carboxamide] | 10 to 1000
16 | N#CCn1cc(N2CC[C@](O)(C(=O)NCc3cc(F)cc(Cl)c3)C2=O)cn1 [B116, N-(3-Chloro-5-fluorobenzyl)-(S)-1-(1-cyanomethyl-1H-pyrazol-4-yl)-3-hydroxy-2-oxopyrrolidine-3-carboxamide] | 10 to 1000
17 | N#CCn1cc(N2CC[C@@](O)(C(=O)NCc3cc(F)cc(Cl)c3)C2=O)cn1 [B117, N-(3-Chloro-5-fluorobenzyl)-(R)-1-(1-cyanomethyl-1H-pyrazol-4-yl)-3-hydroxy-2-oxopyrrolidine-3-carboxamide] | > 10000
18 | CC(=O)NS(=O)(=O)c1ccc(N2CCC(O)(C(=O)NCc3cc(F)cc(Cl)c3)C2=O)cc1 (stereo not drawn) [B118, N-(3-Chloro-5-fluorobenzyl)-1-(4-acetylsulfamoylphenyl)-3-hydroxy-2-oxopyrrolidine-3-carboxamide] | 10 to 1000
19 | NC(=O)Cn1cc(N2CC[C@](O)(C(=O)NCc3cc(F)cc(Cl)c3)C2=O)cn1 [B119, N-(3-Chloro-5-fluorobenzyl)-(S)-1-(1-carbamoylmethyl-1H-pyrazol-4-yl)-3-hydroxy-2-oxo-pyrrolidine-3-carboxamide] | 10 to 1000

The next lines start with the values.

Row | IC50 [nM] | SMILES
20 | > 10000 | CC(C)NC(=O)c1cc2cc(N3CC[C@@](O)(C(=O)NCc4cc(F)cc(Cl)c4)C3=O)ccc2[nH]1 [B89, N-Isopropyl-5-[(R)-3-(3-chloro-5-fluorobenzylcarbamoyl)-3-hydroxy-2-oxopyrrolidin-1-yl]-1H-indole-2-carboxamide]
21 | > 10000 | CN(C)C(=O)c1cc2cc(N3CC[C@@](O)(C(=O)NCc4cc(F)cc(Cl)c4)C3=O)ccc2[nH]1 [B90, N,N-Dimethyl-5-[(R)-3-(3-chloro-5-fluorobenzylcarbamoyl)-3-hydroxy-2-oxopyrrolidin-1-yl]-1H-indole-2-carboxamide]
22 | 10 to 1000 | CN(C)C(=O)c1cc2cc(N3CC[C@](O)(C(=O)NCc4cc(F)cc(Cl)c4)C3=O)ccc2[nH]1 [B95, N,N-Dimethyl-5-[(S)-3-(3-chloro-5-fluorobenzylcarbamoyl)-3-hydroxy-2-oxopyrrolidin-1-yl]-1H-indole-2-carboxamide]
23 | 10 to 1000 | CNC(=O)c1cc2cc(N3CC[C@](O)(C(=O)NCc4cc(F)cc(Cl)c4)C3=O)ccc2[nH]1 [B96, N-Methyl-5-[(S)-3-(3-chloro-5-fluorobenzylcarbamoyl)-3-hydroxy-2-oxopyrrolidin-1-yl]-1H-indole-2-carboxamide]
24 | 10 to 1000 | CC(C)NC(=O)c1cc2cc(N3CC[C@](O)(C(=O)NCc4cc(F)cc(Cl)c4)C3=O)ccc2[nH]1 [B97, N-Isopropyl-5-[(S)-3-(3-chloro-5-fluorobenzylcarbamoyl)-3-hydroxy-2-oxopyrrolidin-1-yl]-1H-indole-2-carboxamide]
25 | > 10000 | CNC(=O)c1cc2cc(N3CC[C@@](O)(C(=O)NCc4cc(F)cc(Cl)c4)C3=O)ccc2[nH]1 [B102, N-Methyl-5-[(R)-3-(3-chloro-5-fluorobenzylcarbamoyl)-3-hydroxy-2-oxopyrrolidin-1-yl]-1H-indole-2-carboxamide]
26 | 10 to 1000 | NS(=O)(=O)c1cccc(N2CCC(O)(C(=O)NCc3cc(F)cc(Cl)c3)C2=O)c1 (stereo not drawn) [B107, N-(3-Chloro-5-fluorobenzyl)-3-hydroxy-2-oxo-1-(3-sulfamoyl-phenyl)pyrrolidine-3-carboxamide]
27 | 10 to 1000 | NCCOCCOCCNC(=O)c1cc2cc(N3CC[C@](O)(C(=O)NCc4cc(F)cc(Cl)c4)C3=O)ccc2[nH]1 [B108, N-({2-[2-(2-Aminoethoxy)-ethoxy]ethyl})-5-[(S)-3-(3-chloro-5-fluorobenzylcarbamoyl)-3-hydroxy-2-oxopyrrolidin-1-yl]-1H-indole-2-carboxamide]
28 | 10 to 1000 | O=C(c1cc2cc(N3CC[C@](O)(C(=O)NCc4cc(F)cc(Cl)c4)C3=O)ccc2[nH]1)N1CCOCC1 [B112, N-(3-Chloro-5-fluorobenzyl)-(S)-3-hydroxy-1-[2-(morpholine-4-carbonyl)-1H-indol-5-yl]-2-oxo-pyrrolidine-3-carboxamide]
29 | 10 to 1000 | NCCOCCNC(=O)c1cc2cc(N3CC[C@](O)(C(=O)NCc4cc(F)cc(Cl)c4)C3=O)ccc2[nH]1 [B113, N-[2-(2-Aminoethoxy)ethyl]-5-[(S)-3-(3-chloro-5-fluorobenzylcarbamoyl)-3-hydroxy-2-oxopyrrolidin-1-yl]-1H-indole-2-carboxamide]
30 | 10 to 1000 | O=C(c1cc2cc(N3CC[C@](O)(C(=O)NCc4cc(F)cc(Cl)c4)C3=O)ccc2[nH]1)N1CCC1 [B114, N-(3-Chloro-5-fluorobenzyl)-(S)-1-[2-(azetidine-1-carbonyl)-1H-indol-5-yl]-3-hydroxy-2-oxo-pyrrolidine-3-carboxamide]
31 | 10 to 1000 | O=C(NCCO)c1cc2cc(N3CC[C@](O)(C(=O)NCc4cc(F)cc(Cl)c4)C3=O)ccc2[nH]1 [B121, N-(2-hydroxyethyl)-5-[(S)-3-(3-chloro-5-fluorobenzyl-carbamoyl)-3-hydroxy-2-oxo-pyrrolidin-1-yl]-1H-indole-2-carboxamide]
32 | 10 to 1000 | CN1CCN(C(=O)c2cc3cc(N4CC[C@](O)(C(=O)NCc5cc(F)cc(Cl)c5)C4=O)ccc3[nH]2)CC1 [B122, N-(3-Chloro-5-fluorobenzyl)-(S)-3-hydroxy-1-[2-(4-methyl-piperazin-1-carbonyl)-1H-indol-5-yl]-2-oxopyrrolidine-3-carboxamide]
33 | 10 to 1000 | CC(C)(C)OC(=O)N1CCN(C(=O)c2cc3cc(N4CC[C@](O)(C(=O)NCc5cc(F)cc(Cl)c5)C4=O)ccc3[nH]2)CC1 [B123, tert-Butyl 4-{5-[(S)-3-(3-chloro-5-fluorobenzylcarbamoyl)-3-hydroxy-2-oxopyrrolidin-1-yl]-1H-indol-2-carbonyl}-piperazine-1-carboxylate]
